In PubChem BioAssay AID1918998 (Molecular Pharmacology Branch, DTP, NCI, 2023):

Test system: 521955-158-R2-J5-PDC complex spheroid growth
Experiment: Anticancer human tumor 521955-158-R2-J5-PDC patient-derived pancreatic carcinoma cell line growth inhibition [AhR]
Conditions: for IC50: curve of first compound; for viability, T/C: stronger effect = lower value
Procedure, shortened: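 Agents were dosed in half-log steps down from roughly clinical Cmax, or from 10 microM where Cmax was unknown, alone and with AhR antagonists. Read-out: percent test/control growth of tumor spheroids containing HUVEC and MSC stromal cells.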

[1] = second compound 0.1 µM, first compound 0.00949 µM
[2] = second compound 0.1 µM, first compound 0.03 µM
[3] = second compound 0.1 µM, first compound 0.0949 µM
[4] = second compound 0.1 µM, first compound 0.3 µM
[5] = second compound 0.316 µM, first compound 0.00949 µM
[6] = second compound 0.316 µM, first compound 0.03 µM
[7] = second compound 0.316 µM, first compound 0.0949 µM
[8] = second compound 0.316 µM, first compound 0.3 µM
[9] = second compound 1 µM, first compound 0.00949 µM
[10] = second compound 1 µM, first compound 0.03 µM
[11] = second compound 1 µM, first compound 0.0949 µM
[12] = second compound 1 µM, first compound 0.3 µM
[13] = second compound 3.16 µM, first compound 0.00949 µM
[14] = second compound 3.16 µM, first compound 0.03 µM
[15] = second compound 3.16 µM, first compound 0.0949 µM
[16] = second compound 3.16 µM, first compound 0.3 µM
[17] = second compound 10 µM, first compound 0.00949 µM
[18] = second compound 10 µM, first compound 0.03 µM
[19] = second compound 10 µM, first compound 0.0949 µM
[20] = second compound 10 µM, first compound 0.3 µM
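For viability, T/C in this document: spheroids mix tumor cells with HUVEC endothelium and human MSC stroma; luminescence taken as viability surrogate after a week of drug exposure.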

CC1COCCN1c1cc(C2(S(C)(=N)=O)CC2)nc(-c2ccnc3[nH]ccc23)n1 (stereo not given) + Cc1ccccc1N=Nc1ccc(NC(=O)c2ccnn2C)c(C)c1
IC50 (second compound 0.1 µM): 2050 nM
IC50 (second compound 0.316 µM): 2360 nM
IC50 (second compound 1 µM): 2540 nM
IC50 (second compound 3.16 µM): 2520 nM
IC50 (second compound 10 µM): 2550 nM
viability, T/C (second compound 0.1 µM, first compound 0.0316 µM): 93.3%
viability, T/C (second compound 0.1 µM, first compound 0.1 µM): 84.7%
viability, T/C (second compound 0.1 µM, first compound 0.316 µM): 86.6%
viability, T/C (second compound 0.1 µM, first compound 1 µM): 86.2%
viability, T/C (second compound 0.1 µM, first compound 3.16 µM): 28.1%
viability, T/C (second compound 0.1 µM, first compound 10 µM): 15.9%
viability, T/C (second compound 0.316 µM, first compound 0.0316 µM): 104%
viability, T/C (second compound 0.316 µM, first compound 0.1 µM): 112%
viability, T/C (second compound 0.316 µM, first compound 0.316 µM): 100%
viability, T/C (second compound 0.316 µM, first compound 1 µM): 101%
viability, T/C (second compound 0.316 µM, first compound 3.16 µM): 32.8%
viability, T/C (second compound 0.316 µM, first compound 10 µM): 14%
viability, T/C (second compound 1 µM, first compound 0.0316 µM): 117%
viability, T/C (second compound 1 µM, first compound 0.1 µM): 110%
viability, T/C (second compound 1 µM, first compound 0.316 µM): 136%
viability, T/C (second compound 1 µM, first compound 1 µM): 109%
viability, T/C (second compound 1 µM, first compound 3.16 µM): 36.2%
viability, T/C (second compound 1 µM, first compound 10 µM): 14.8%
viability, T/C (second compound 3.16 µM, first compound 0.0316 µM): 123%
viability, T/C (second compound 3.16 µM, first compound 0.1 µM): 135%
viability, T/C (second compound 3.16 µM, first compound 0.316 µM): 131%
viability, T/C (second compound 3.16 µM, first compound 1 µM): 120%
viability, T/C (second compound 3.16 µM, first compound 3.16 µM): 32.8%
viability, T/C (second compound 3.16 µM, first compound 10 µM): 15.5%
viability, T/C (second compound 10 µM, first compound 0.0316 µM): 130%
viability, T/C (second compound 10 µM, first compound 0.1 µM): 149%
viability, T/C (second compound 10 µM, first compound 0.316 µM): 139%
viability, T/C (second compound 10 µM, first compound 1 µM): 124%
viability, T/C (second compound 10 µM, first compound 3.16 µM): 32.9%
viability, T/C (second compound 10 µM, first compound 10 µM): 16.1%

Nc1ncn(C2CC(O)C(CO)S2)c(=O)n1 (stereo not given) + Cc1ccccc1N=Nc1ccc(NC(=O)c2ccnn2C)c(C)c1
IC50 (second compound 0.1 µM): > 300 nM
IC50 (second compound 0.316 µM): > 300 nM
IC50 (second compound 1 µM): > 300 nM
IC50 (second compound 3.16 µM): > 300 nM
IC50 (second compound 10 µM): > 300 nM
viability, T/C (second compound 0.1 µM, first compound 0.000949 µM): 125%
viability, T/C (second compound 0.1 µM, first compound 0.003 µM): 103%
viability, T/C [1]: 104%
viability, T/C [2]: 104%
viability, T/C [3]: 98%
viability, T/C [4]: 73%
viability, T/C (second compound 0.316 µM, first compound 0.000949 µM): 92.9%
viability, T/C (second compound 0.316 µM, first compound 0.003 µM): 132%
viability, T/C [5]: 107%
viability, T/C [6]: 100%
viability, T/C [7]: 80.5%
viability, T/C [8]: 78.2%
viability, T/C (second compound 1 µM, first compound 0.000949 µM): 100%
viability, T/C (second compound 1 µM, first compound 0.003 µM): 146%
viability, T/C [9]: 108%
viability, T/C [10]: 91%
viability, T/C [11]: 99.9%
viability, T/C [12]: 102%
viability, T/C (second compound 3.16 µM, first compound 0.000949 µM): 135%
viability, T/C (second compound 3.16 µM, first compound 0.003 µM): 145%
viability, T/C [13]: 125%
viability, T/C [14]: 130%
viability, T/C [15]: 105%
viability, T/C [16]: 109%
viability, T/C (second compound 10 µM, first compound 0.000949 µM): 176%
viability, T/C (second compound 10 µM, first compound 0.003 µM): 170%
viability, T/C [17]: 157%
viability, T/C [18]: 139%
viability, T/C [19]: 125%
viability, T/C [20]: 127%

O=C(C=Cn1cnc(-c2cc(C(F)(F)F)cc(C(F)(F)F)c2)n1)NNc1cnccn1 + Cc1ccccc1N=Nc1ccc(NC(=O)c2ccnn2C)c(C)c1
IC50 (second compound 0.1 µM): 40.1 nM
IC50 (second compound 0.316 µM): < 9.49 nM
IC50 (second compound 1 µM): 18.5 nM
IC50 (second compound 3.16 µM): < 9.49 nM
IC50 (second compound 10 µM): 140 nM
viability, T/C [1]: 59%
viability, T/C [2]: 50.4%
viability, T/C [3]: 41.2%
viability, T/C [4]: 39.5%
viability, T/C (second compound 0.1 µM, first compound 0.949 µM): 40.2%
viability, T/C (second compound 0.1 µM, first compound 3 µM): 21.5%
viability, T/C [5]: 54.8%
viability, T/C [6]: 43.1%
viability, T/C [7]: 39.3%
viability, T/C [8]: 46.1%
viability, T/C (second compound 0.316 µM, first compound 0.949 µM): 40.8%
viability, T/C (second compound 0.316 µM, first compound 3 µM): 24.6%
viability, T/C [9]: 55.8%
viability, T/C [10]: 42.6%
viability, T/C [11]: 45.1%
viability, T/C [12]: 36.2%
viability, T/C (second compound 1 µM, first compound 0.949 µM): 38.4%
viability, T/C (second compound 1 µM, first compound 3 µM): 31.8%
viability, T/C [13]: 53.8%
viability, T/C [14]: 51.4%
viability, T/C [15]: 47.6%
viability, T/C [16]: 40.8%
viability, T/C (second compound 3.16 µM, first compound 0.949 µM): 50.2%
viability, T/C (second compound 3.16 µM, first compound 3 µM): 29.8%
viability, T/C [17]: 91%
viability, T/C [18]: 66.2%
viability, T/C [19]: 47.6%
viability, T/C [20]: 53.4%
viability, T/C (second compound 10 µM, first compound 0.949 µM): 38.2%
viability, T/C (second compound 10 µM, first compound 3 µM): 32.9%
